Measurements taken from US11878971B2, “Piperlongumine-based compound and immuno regulator comprising the same” (HUSCION CO., LTD., priority 2020, dated 2024).
Entries after “also recorded” stand apart in the source; their conditions may differ.

Key:
STAT3 signaling = experiment: Reporter gene assay HEK-Blue IL-10; format: cell-based; conditions: HEK-Blue IL-10 cells, stimulant interleukin-10; FIG. 13
Method: (§1) In the present test example, THP1-Lucia NF-κB, HEK-Lucia RIG-1, HEK-Blue-IL-4/IL-13, and HEK-Blue IL-10 cell lines were purchased from InVivoGen, and evaluated for inhibitory activity on immune cell signaling, and the analysis was performed according to the manufacturer's analysis method. Specifically, the four types of cell lines were treated with each of test substances, which are the piperlongumine-based compounds 1 to 19, and then treated with each of promoter stimulants (LPS, 3p-hpRNA, interleukin-4, and interleukin-10). The response was induced according to the guidelines, and then the activity inhibitory ability was analyzed.

RIG1 = experiment: Reporter gene assay HEK-Lucia RIG-1; format: cell-based; conditions: HEK-Lucia RIG-1 cells, stimulant 3p-hpRNA; FIG. 12
Method: as §1

IL-2 gene expression = experiment: T cell-dependent cytokine IL-2 gene expression inhibition, splenocytes ex vivo; conditions: Balb/c mouse splenocytes, CD3 monoclonal antibody stimulation; control cyclosporine (CsA); FIG. 6
NF-κB signaling pathway = experiment: Reporter gene assay THP1-Lucia NF-κB; format: cell-based; conditions: THP1-Lucia NF-κB cells stimulated with LPS; FIG. 11
Method: as §1

STAT6 signaling = experiment: Reporter gene assay HEK-Blue-IL-4/IL-13; format: cell-based; conditions: HEK-Blue-IL-4/IL-13 cells, stimulant interleukin-4; FIG. 14
Method: as §1
STAT6 is a transcription factor that plays a role in modulating the expression of various cytokines, hormones, and growth factors by signals coming from the outside. IL-4/IL-13 and STAT6 are also important modulator of Th2.

IL-4 gene expression = experiment: T cell-dependent cytokine IL-4 gene expression inhibition, splenocytes ex vivo; conditions: Balb/c mouse splenocytes, CD3 monoclonal antibody stimulation; control cyclosporine (CsA); FIG. 8
IFNγ expression = experiment: T cell-dependent cytokine IFNγ gene expression inhibition, splenocytes ex vivo; conditions: Balb/c mouse splenocytes, CD3 monoclonal antibody stimulation; FIG. 7
IL-17a gene expression = experiment: T cell-dependent cytokine IL-17a gene expression inhibition, splenocytes ex vivo; conditions: Balb/c mouse splenocytes, CD3 monoclonal antibody stimulation

SMILES	STAT3 activity inhibitory effect (STAT3 signaling)	RIG1 activity inhibitory effect (RIG1)	IL-2 gene expression inhibitory activity (IL-2 gene expression)	NF-κB activity inhibitory effect (NF-κB signaling pathway)	STAT6 activity inhibitory effect (STAT6 signaling)	IL-4 gene expression inhibitory activity (IL-4 gene expression)	inhibitory ability on Th1-derived IFNγ expression (IFNγ expression)	IL-17a gene expression inhibitory activity (IL-17a gene expression; control cyclosporine (CSA), FIG. 10)	IL-17a gene expression inhibitory activity, fold higher compared with Compound 3 (IL-17a gene expression; relative to Compound 3)	IL-17a gene expression inhibitory activity, fold higher compared with Compound 9 (IL-17a gene expression; relative to Compound 9)
COC(=O)c1cc(/C=C/C(=O)N2CCC=C(Br)C2=O)ccc1O [Compound 10, (E)-methyl-5-(3-(3-bromo-2-oxo-5,6-dihydropyridin-1(2H)-yl)-3-oxoprop-1-en-1-yl)-2-hydroxybenzoate]	very high STAT3 activity inhibitory ability	very high RIG1 activity inhibitory ability	–	–	–	–	–	–	–	–
COC(=O)c1cc(/C=C/C(=O)N2CCC=C(Cl)C2=O)ccc1OC [Compound 3, (E)-methyl-5-(3-(3-chloro-2-oxo-5,6-dihydropyridin-1(2H)-yl)-3-oxoprop-1-en-1-yl)-2-methoxybenzoate]	very high STAT3 activity inhibitory ability	very high RIG1 activity inhibitory ability	IL-2 gene expression inhibitory activity at a significant level equal to or greater than that of cyclosporine; also recorded: effectively inhibit	very high NF-κB activity inhibitory ability	very high STAT6 activity inhibitory ability	IL-4 gene expression inhibitory activity at a significant level equal to or greater than that of cyclosporine; also recorded: effectively inhibit	effectively inhibit	–	–	–
COC(=O)c1cc(/C=C/C(=O)N2CCC=CC2=O)ccc1OC [Compound 1, (E)-methyl-2-methoxy-5-(3-oxo-3-(2-oxo-5,6-dihydropyridin-1(2H)-yl)prop-1-en-1-yl)benzoate]	very high STAT3 activity inhibitory ability	very high RIG1 activity inhibitory ability	IL-2 gene expression inhibitory activity at a significant level equal to or greater than that of cyclosporine; also recorded: effectively inhibit	very high NF-κB activity inhibitory ability	very high STAT6 activity inhibitory ability	IL-4 gene expression inhibitory activity at a significant level equal to or greater than that of cyclosporine; also recorded: effectively inhibit	effectively inhibit	excellent IL-17a expression inhibitory activity compared with cyclosporine	at least 6 fold	at least 3 fold
COC(=O)c1cc(/C=C/C(=O)N2CCC=C(Cl)C2=O)ccc1O [Compound 12, (E)-methyl-5-(3-(3-chloro-2-oxo-5,6-dihydropyridin-1(2H)-yl)-3-oxoprop-1-en-1-yl)-2-hydroxybenzoate]	very high STAT3 activity inhibitory ability	–	–	–	very high STAT6 activity inhibitory ability	–	–	–	–	–
O=C(/C=C/c1cccc([N+](=O)[O-])c1)N1CCC=C(Cl)C1=O [Compound 16, (E)-3-chloro-1-(3-(3-nitrophenyl)acryloyl)-5,6-dihydropyridin-2(1H)-one]	very high STAT3 activity inhibitory ability	–	–	–	very high STAT6 activity inhibitory ability	–	–	–	–	–
COC(=O)c1cc(/C=C/C(=O)N2CCC=C(Br)C2=O)ccc1OC(C)=O [Compound 11, (E)-methyl-2-acetoxy-5-(3-(3-bromo-2-oxo-5,6-dihydropyridin-1(2H)-yl)-3-oxoprop-1-en-1-yl)benzoate]	–	–	–	–	–	IL-4 gene expression inhibitory activity at a significant level equal to or greater than that of cyclosporine	–	–	–	–
COC(=O)c1cc(/C=C/C(=O)N2CCC=C(Cl)C2=O)ccc1OC(C)=O [Compound 13, (E)-methyl-2-acetoxy-5-(3-(3-chloro-2-oxo-5,6-dihydropyridin-1(2H)-yl)-3-oxoprop-1-en-1-yl)benzoate]	very high STAT3 activity inhibitory ability	–	–	–	very high STAT6 activity inhibitory ability	–	–	–	–	–
COC(=O)c1cc(/C=C/C(=O)N2CCC=C(Br)C2=O)ccc1OC [Compound 9, (E)-methyl-5-(3-(3-bromo-2-oxo-5,6-dihydropyridin-1(2H)-yl)-3-oxoprop-1-en-1-yl)-2-methoxybenzoate]	very high STAT3 activity inhibitory ability	very high RIG1 activity inhibitory ability	IL-2 gene expression inhibitory activity at a significant level equal to or greater than that of cyclosporine; also recorded: effectively inhibit	very high NF-κB activity inhibitory ability	–	IL-4 gene expression inhibitory activity at a significant level equal to or greater than that of cyclosporine; also recorded: effectively inhibit	effectively inhibit	–	–	–
